Tests used:
wild-type HCT-116 cells = experiment: Cell proliferation (MTS), wild-type HCT-116; format: cell-based; details: Homo sapiens, 240 h; wild-type HCT-116, 10 days with compound, MTS reading; read-out: IC50 HCT116 WT
Protocol: (§1) MTAP^-/- HCT-116 and wild-type HCT-116 cell strains were cultured in complete medium McCoy's 5A (Gibco, 16600082)/10% FBS (Gibco, 10099141C)/1% p/s (Gibco, 15140122) to evaluate the enhanced inhibitory effect of the compounds against the proliferation selectivity of MTAP^-/- HCT-116 cells. On day 0, MTAP^-/- HCT-116 cells or wild-type HCT-116 cells were added to a 96-well cell culture plate (Corning, 3599) at 100 cells/well, and the plate was incubated in an incubator at 37 °C with 5% CO2. The compound was diluted in a 3-fold gradient with DMSO (Sigma, D5879) (initial concentration: 20 µM, 3-fold dilution, 8 concentration points in total). On day 1, the compound was diluted to multiple concentration points, and the cells were treated separately and incubated in the incubator at 37 °C with 5% CO2 for another 10 days. On Day 11, 20 µL of MTS (CellTiter 96® AQueous One Solution Cell Proliferation Assay) (Promega, G3581) was added to each well. […] In the formula, Y represents the inhibition rate, X represents the logarithm of the compound concentration, Top represents the maximum response (the inhibition rate at the maximum compound concentration), Bottom represents the baseline response (the inhibition rate where the compound concentration was 0), Hill Slope represents the slope of the IC50 curve, and IC50 represents the half maximal inhibitory concentration. Table 1. IC50 (µM)

MTAP^-/- HCT-116 cells = experiment: Cell proliferation (MTS), MTAP-/- HCT-116; format: cell-based, human; details: for Selectivity: HCT116 WT IC50 relative to HCT116 MTAP-/- IC50; for IC50: Homo sapiens, 240 h, MTAP-/- HCT-116, 10 days with compound, MTS reading, read-out: IC50 HCT116 MTAP-/-
Excerpt: The colon cancer cell strain HCT-116 (purchased from Nanjing Cobioer) was co-transfected with the gene editing tool CRISPR/Cas9 and sgRNA, and the MTAP^-/- HCT-116 cell strain with biallelic inactivation of MTAP was obtained by assays such as Western Blotting and Sanger sequencing. The MTAP^-/- HCT-116 cell strain was used for compound selectivity screening and evaluation based on the synergistic mechanism of MTAP deletion and PRMT5, including a symmetric dimethylarginine (SDMA) level test, a cell proliferation test, and the like.
as §1, with “On” for “MTAP^-/- HCT-116 and wild-type HCT-116 cell strains were cultured in complete medium McCoy's 5A (Gibco, 16600082)/10% FBS (Gibco, 10099141C)/1% p/s (Gibco, 15140122) to evaluate the enhanced inhibitory effect of the compounds against the proliferation selectivity of MTAP^-/- HCT-116 cells. On”, “concentration.” for “concentration. Table 1. IC50 (µM)”

| Structure (SMILES) | IC50 (wild-type HCT-116 cells) [nM] | Selectivity (MTAP^-/- HCT-116 cells) | IC50 (MTAP^-/- HCT-116 cells) [nM] |
| --- | --- | --- | --- |
| Cc1c(C#Cc2ccc3c(c2)OC[C@H]3N(C)C(=O)c2cc3c4c(c(N)nc3cc2Cl)COC4)cnn1C1CC1 [Compound 71A, (S)-4-amino-7-chloro-N-(6-((1-cyclopropyl-5-methyl-1H-pyrazol-4-yl)ethynyl)-2,3-dihydrobenzofuran-3-yl)-N-methyl-1,3-dihydrofuro[3,4-c]quinoline-8-carboxamide] | 674 | 48 | 14 |
| CN(C(=O)c1cc2c3c(c(N)nc2cc1Cl)COC3)[C@@H]1COc2cc(C#Cc3cccnc3)ccc21 [Compound 70A, (S)-4-amino-7-chloro-N-methyl-N-(6-(pyridin-3-ylethynyl)-2,3-dihydrobenzofuran-3-yl)-1,3-dihydrofuro[3,4-c]quinoline-8-carboxamide] | 475 | 132 | 3.6 |
| CN(C(=O)c1cc2c(cc1F)nc(N)c1cnn(C)c12)C1COc2cc(C#Cc3cnn(C(F)F)c3)ccc21 (stereo not drawn) [Compound 41, 4-amino-N-(6-((1-(difluoromethyl)-1H-pyrazol-4-yl)ethynyl)-2,3-dihydrobenzofuran-3-yl)-7-fluoro-N,1-dimethyl-1H-pyrazolo[4,3-c]quinoline-8-carboxamide] | 1780 | 129 | 13.8 |
| CN(C(=O)c1cc2c(cc1Cl)nc(N)c1cnn(C)c12)[C@@H]1COc2cc(C#Cc3cccnc3F)ccc21 [Compound 56A, (S)-4-amino-7-chloro-N-(6-((2-fluoropyridin-3-yl)ethynyl)-2,3-dihydrobenzofuran-3-yl)-N,1-dimethyl-1H-pyrazolo[4,3-c]quinoline-8-carboxamide] | 160 | 53 | 3 |
| Cc1nn(C)cc1C#Cc1ccc2c(c1)OC[C@H]2N(C)C(=O)c1ccc2nc(N)c3cnn(C)c3c2c1 [Compound 49A, (S)-4-amino-N-(6-((1,3-dimethyl-1H-pyrazol-4-yl)ethynyl)-2,3-dihydrobenzofuran-3-yl)-N,1-dimethyl-1H-pyrazolo[4,3-c]quinoline-8-carboxamide] | 378 | 210 | 1.8 |
| CN1CC=C(C#Cc2ccc3c(c2)OCC3N(C)C(=O)c2ccc3nc(N)c4cnn(C)c4c3c2)CC1 (stereo not drawn) [Compound 6, 4-amino-N,1-dimethyl-N-(6-((1-methyl-1,2,3,6-tetrahydropyridin-4-yl)ethynyl)-2,3-dihydrobenzofuran-3-yl)-1H-pyrazolo[4,3-c]quinoline-8-carboxamide] | 2780 | 257 | 10.8 |
| CN(C(=O)c1cc2c(cc1F)nc(N)c1cnn(C)c12)[C@@H]1COc2cc(C#Cc3cccnc3)ccc21 [Compound 48A, (S)-4-amino-7-fluoro-N,1-dimethyl-N-(6-(pyridin-3-ylethynyl)-2,3-dihydrobenzof uran-3-yl)-1H-pyrazolo[4,3-c]quinoline-8-carboxamide] | 141 | 71 | 2 |
| CN(C(=O)c1cc2c3c(c(N)nc2cc1Cl)COC3)[C@@H]1COc2cc(C#Cc3cnc4cnn(C)c4c3)ccc21 [Compound 76A, (S)-4-amino-7-chloro-N-methyl-N-(6-((1-methyl-1H-pyrazolo[4,3-b]pyridin-6-yl)ethynyl)-2,3-dihydrobenzofuran-3-yl)-1,3-dihydrofuro[3,4-c]quinoline-8-carboxamide] | 167 | 56 | 3 |
| CC(C)n1cc(C#Cc2ccc3c(c2)OCC3N(C)C(=O)c2ccc3nc(N)c4cnn(C)c4c3c2)cn1 (stereo not drawn) [Compound 19, 4-amino-N-(6-((1-isopropyl-1H-pyrazol-4-yl)ethynyl)-2,3-dihydrobenzofuran-3-yl)-N,1-dimethyl-1H-pyrazolo[4,3-c]quinoline-8-carboxamide] | 986 | 102 | 9.7 |
| Cc1c(C#Cc2ccc3c(c2)OC[C@H]3N(C)C(=O)c2ccc3nc(N)c4cnn(C)c4c3c2)cnn1C [Compound 29A, (S)-4-amino-N-(6-((1,5-dimethyl-1H-pyrazol-4-yl)ethynyl)-2,3-dihydrobenzofuran-3-yl)-N,1-dimethyl-1H-pyrazolo[4,3-c]quinoline-8-carboxamide] | 480 | 133 | 3.6 |
| CN(C(=O)c1cc2c(cc1F)nc(N)c1cnn(C)c12)[C@@H]1COc2cc(C#Cc3ccc4cnn(C)c4c3)ccc21 [Compound 60A, (5)-4-amino-7-fluoro-N,1-dimethyl-N-(6-((1-methyl-1H-indazol-6-yl)ethynyl)-2,3-dihydrobenzofuran-3-yl)-1H-pyrazolo[4,3-c]quinoline-8-carboxamide] | 486 | 61 | 8 |
| Cc1cc2nc(N)c3cnn(C)c3c2cc1C(=O)N(C)[C@@H]1COc2cc(C#Cc3cnn(C)c3)ccc21 [Compound 10A, (S)-4-amino-N,1,7-trimethyl-N-(6-((1-methyl-1H-pyrazol-4-yl)ethynyl)-2,3-dihydrobenzofuran-3-yl)-1H-pyrazolo[4,3-c]quinoline-8-carboxamide] | 28 | 56 | 0.5 |
| CN(C(=O)c1ccc2nc(N)c3cnn(C)c3c2c1)[C@@H]1COc2cc(C#Cc3cn(C)nc3Cl)ccc21 [Compound 34A, (S)-4-amino-N-(6-((3-chloro-1-methyl-1H-pyrazol-4-yl)ethynyl)-2,3-dihydrobenzofuran-3-yl)-N,1-dimethyl-1H-pyrazolo[4,3-c]quinoline-8-carboxamide] | 266 | 133 | 2 |
| CCn1cc(C#Cc2ccc3c(c2)OC[C@H]3N(C)C(=O)c2cc3c4c(c(N)nc3cc2Cl)COC4)cn1 [Compound 69A, (S)-4-amino-7-chloro-N-(6-((1-ethyl-1H-pyrazol-4-yl)ethynyl)-2,3-dihydrobenzof uran-3-yl)-N-methyl-1,3-dihydrofuro[3,4-c]quinoline-8-carboxamide] | 864 | 173 | 5 |
| Cc1ncccc1C#Cc1ccc2c(c1)OC[C@H]2N(C)C(=O)c1cc2c(cc1F)nc(N)c1cnn(C)c12 [Compound 45A, (S)-4-amino-7-fluoro-N,1-dimethyl-N-(6-((2-methylpyridin-3-yl)ethynyl)-2,3-dihydrobenzofuran-3-yl)-1H-pyrazolo[4,3-c]quinoline-8-carboxamide] | 213 | 53 | 4 |
| CN(C(=O)c1cc2c(cc1F)nc(N)c1cnn(C)c12)[C@@H]1COc2cc(C#Cc3cnc4n3CCC4)ccc21 [Compound 84A, (S)-4-amino-N-(6-((6,7-dihydro-5H-pyrrolo[1,2-a]imidazol-3-yl)ethynyl)-2,3-dihydrobenzofuran-3-yl)-7-fluoro-N,1-dimethyl-1H-pyrazolo[4,3-c]quinoline-8-carbo xamide] | 143 | 55 | 2.6 |
| CN(C(=O)c1cc2c(cc1F)nc(N)c1cnn(C)c12)C1COc2cc(C#Cc3cn(C)nc3Cl)ccc21 (stereo not drawn) [Compound 24, 4-amino-N-(6-((3-chloro-1-methyl-1H-pyrazol-4-yl)ethynyl)-2,3-dihydrobenzofuran-3-yl)-7-fluoro-N,1-dimethyl-1H-pyrazolo[4,3-c]quinoline-8-carboxamide] | 115 | 61 | 1.9 |
| CN(C(=O)c1cc2c3c(c(N)nc2cc1F)COC3)[C@@H]1COc2cc(C#Cc3cnc4n3CCCC4)ccc21 [Compound 80A, (S)-4-amino-7-fluoro-N-methyl-N-(6-((5,6,7,8-tetrahydroimidazo[1,2-a]pyridin-3-yl)ethynyl)-2,3-dihydrobenzofuran-3-yl)-1,3-dihydrofuro [3,4-c] quinoline-8-carbo xamide] | 1510 | 251 | 6 |
